Experimental data from patent US20160158200A1, “Combinations of Hepatitis C Virus Inhibitors” (priority 2013, published 2016).

The compounds below were run on HCV genotype-1a variant with glutamine 30 changed to glutamate in the NS5A protein. Conditions: test compound titrated with BMS-790052 fixed at 200 nM; genotype 1a Q30E replicon.
Assay type: cell-based
Procedure, shortened: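 Synergy was assessed by combining several fixed amounts of an NS5A-targeting compound with a titration of the second compound of interest.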
For `CC(C)(C(=O)N[C@H](c1nc(-c2ccc(-c3ccc(-c4c[nH]c([C@@H](NC(=O)C(C)(C)C(O)C5CC(F)(F)C5)C(C)(C)C)n4)cc3)cc2)c[nH]1)C(C)(C)C)C(O)C1CC(F)(F)C1` (single isomer, unassigned) [Compound N-144A], the “Fold-Synergistic 1a (Q30E)” value was >100 fold. In the case of `CC(C)(C(=O)N[C@H](c1nc(-c2ccc(-c3ccc(-c4c[nH]c([C@@H](NC(=O)C(C)(C)C(O)C5CC(F)(F)C5)C(C)(C)C)n4)cc3)cc2)c[nH]1)C(C)(C)C)C(O)C1CC(F)(F)C1` (single isomer, unassigned) [Compound N-144B], the “Fold-Synergistic 1a (Q30E)” value is reported as >100 fold. `CC(C)(C(=O)N[C@H](c1nc(-c2ccc(-c3ccc(-c4c[nH]c([C@@H](NC(=O)C(C)(C)C(O)C5CC(F)(F)C5)C(C)(C)C)n4)cc3)cc2)c[nH]1)C(C)(C)C)C(O)C1CC(F)(F)C1` (single isomer, unassigned) [Compound N-144C] was tested, and the “Fold-Synergistic 1a (Q30E)” value was >100 fold. `CC(C)[C@H](NC(=O)C(C)(C)C(O)C1CC(F)(F)C1)c1nc(-c2ccc(-c3ccc(-c4c[nH]c([C@@H](NC(=O)C(C)(C)C(O)C5CC(F)(F)C5)C(C)C)n4)cc3)cc2)c[nH]1` (single isomer, unassigned) [Compound N-145A] was tested, and the “Fold-Synergistic 1a (Q30E)” value was >100 fold. With `CC(C)[C@H](NC(=O)C(C)(C)C(O)C1CC(F)(F)C1)c1nc(-c2ccc(-c3ccc(-c4c[nH]c([C@@H](NC(=O)C(C)(C)C(O)C5CC(F)(F)C5)C(C)C)n4)cc3)cc2)c[nH]1` (single isomer, unassigned) [Compound N-145B] the “Fold-Synergistic 1a (Q30E)” value was >100 fold. In the case of `CC(C)[C@H](NC(=O)C(C)(C)C(O)C1CC(F)(F)C1)c1nc(-c2ccc(-c3ccc(-c4c[nH]c([C@@H](NC(=O)C(C)(C)C(O)C5CC(F)(F)C5)C(C)C)n4)cc3)cc2)c[nH]1` (single isomer, unassigned) [Compound N-145C], the “Fold-Synergistic 1a (Q30E)” value is reported as >100 fold. With `CC1(C(O)C(C)(C)C(=O)N[C@H](c2nc(-c3ccc(-c4ccc(-c5c[nH]c([C@@H](NC(=O)C(C)(C)C(O)C6(C)CC6)C(C)(C)C)n5)cc4)cc3)c[nH]2)C(C)(C)C)CC1` (single isomer, unassigned) [Compound N-151A] the “Fold-Synergistic 1a (Q30E)” value was >100 fold. For `CC1(C(O)C(C)(C)C(=O)N[C@H](c2nc(-c3ccc(-c4ccc(-c5c[nH]c([C@@H](NC(=O)C(C)(C)C(O)C6(C)CC6)C(C)(C)C)n5)cc4)cc3)c[nH]2)C(C)(C)C)CC1` (single isomer, unassigned) [Compound N-151B], the “Fold-Synergistic 1a (Q30E)” value was >100 fold. `CC1(C(O)C(C)(C)C(=O)N[C@H](c2nc(-c3ccc(-c4ccc(-c5c[nH]c([C@@H](NC(=O)C(C)(C)C(O)C6(C)CC6)C(C)(C)C)n5)cc4)cc3)c[nH]2)C(C)(C)C)CC1` (single isomer, unassigned) [Compound N-151C] was tested, and the “Fold-Synergistic 1a (Q30E)” value was >100 fold. With `CC(O)C1(C(=O)N[C@H](c2nc(-c3ccc(-c4ccc(-c5c[nH]c([C@@H](NC(=O)C6(C(C)O)CCCCC6)C(C)(C)C)n5)cc4)cc3)c[nH]2)C(C)(C)C)CCCCC1` (single isomer, unassigned) [Compound N-152B] the “Fold-Synergistic 1a (Q30E)” value was >100 fold. With `CC(O)C1(C(=O)N[C@H](c2nc(-c3ccc(-c4ccc(-c5c[nH]c([C@@H](NC(=O)C6(C(C)O)CCCCC6)C(C)(C)C)n5)cc4)cc3)c[nH]2)C(C)(C)C)CCCCC1` (single isomer, unassigned) [Compound N-152C] the “Fold-Synergistic 1a (Q30E)” value was >100 fold. In the case of `COC(CO)(CC(C)C)C(=O)N[C@H](c1nc(-c2ccc(-c3ccc(-c4c[nH]c([C@@H](NC(=O)C(CO)(CC(C)C)OC)C(C)(C)C)n4)cc3)cc2)c[nH]1)C(C)(C)C` (single isomer, unassigned) [Compound N-160A], the “Fold-Synergistic 1a (Q30E)” value is reported as >100 fold. For `COC(CO)(CC(C)C)C(=O)N[C@H](c1nc(-c2ccc(-c3ccc(-c4c[nH]c([C@@H](NC(=O)C(CO)(CC(C)C)OC)C(C)(C)C)n4)cc3)cc2)c[nH]1)C(C)(C)C` (single isomer, unassigned) [Compound N-160B], the “Fold-Synergistic 1a (Q30E)” value was >100 fold. In the case of `COC(CO)(CC(C)C)C(=O)N[C@H](c1nc(-c2ccc(-c3ccc(-c4c[nH]c([C@@H](NC(=O)C(CO)(CC(C)C)OC)C(C)(C)C)n4)cc3)cc2)c[nH]1)C(C)(C)C` (single isomer, unassigned) [Compound N-160C], the “Fold-Synergistic 1a (Q30E)” value is reported as >100 fold. With `CC(C)(C)OC(=O)NC1(C(=O)N[C@H](c2nc(-c3ccc(-c4ccc(-c5c[nH]c([C@@H](NC(=O)C6(NC(=O)OC(C)(C)C)CC6(F)F)C(C)(C)C)n5)cc4)cc3)c[nH]2)C(C)(C)C)CC1(F)F` (single isomer, unassigned) [Compound W-13] the “Fold-Synergistic 1a (Q30E)” value was >100 fold. For `CC(C)(C)OC(=O)NC1(C(=O)N[C@H](c2nc(-c3ccc(-c4ccc(-c5c[nH]c([C@@H](NC(=O)C6(NC(=O)OC(C)(C)C)CC6(F)F)C(C)(C)C)n5)cc4)cc3)c[nH]2)C(C)(C)C)CC1(F)F` (single isomer, unassigned) [Compound W-14], the “Fold-Synergistic 1a (Q30E)” value was >100 fold. In the case of `CC(C)(C)OC(=O)NC1(C(=O)N[C@H](c2nc(-c3ccc(-c4ccc(-c5c[nH]c([C@@H](NC(=O)C6(NC(=O)OC(C)(C)C)CC6(F)F)C(C)(C)C)n5)cc4)cc3)c[nH]2)C(C)(C)C)CC1(F)F` (single isomer, unassigned) [Compound W-15], the “Fold-Synergistic 1a (Q30E)” value is reported as >100 fold. For `CC(C)(C)OC(=O)NC1CCCCC1C(=O)N[C@H](c1nc(-c2ccc(-c3ccc(-c4c[nH]c([C@@H](NC(=O)C5CCCCC5NC(=O)OC(C)(C)C)C(C)(C)C)n4)cc3)cc2)c[nH]1)C(C)(C)C` (single isomer, unassigned) [Compound W-23A], the “Fold-Synergistic 1a (Q30E)” value was >100 fold. `CC(C)(C)OC(=O)NC1CCCCC1C(=O)N[C@H](c1nc(-c2ccc(-c3ccc(-c4c[nH]c([C@@H](NC(=O)C5CCCCC5NC(=O)OC(C)(C)C)C(C)(C)C)n4)cc3)cc2)c[nH]1)C(C)(C)C` (single isomer, unassigned) [Compound W-23B] was tested, and the “Fold-Synergistic 1a (Q30E)” value was >100 fold. For `CC(C)(C)OC(=O)NC1CCCCC1C(=O)N[C@H](c1nc(-c2ccc(-c3ccc(-c4c[nH]c([C@@H](NC(=O)C5CCCCC5NC(=O)OC(C)(C)C)C(C)(C)C)n4)cc3)cc2)c[nH]1)C(C)(C)C` (single isomer, unassigned) [Compound W-23C], the “Fold-Synergistic 1a (Q30E)” value was >100 fold. `CC1CN(C(=O)C(=O)N[C@H](c2nc(-c3ccc(-c4ccc(-c5c[nH]c([C@@H](NC(=O)C(=O)N6CC(C)OC(C)C6)C(C)(C)C)n5)cc4)cc3)c[nH]2)C(C)(C)C)CC(C)O1` (single isomer, unassigned) [Compound W-40A] was tested, and the “Fold-Synergistic 1a (Q30E)” value was >100 fold. In the case of `CC1CN(C(=O)C(=O)N[C@H](c2nc(-c3ccc(-c4ccc(-c5c[nH]c([C@@H](NC(=O)C(=O)N6CC(C)OC(C)C6)C(C)(C)C)n5)cc4)cc3)c[nH]2)C(C)(C)C)CC(C)O1` (single isomer, unassigned) [Compound W-40B], the “Fold-Synergistic 1a (Q30E)” value is reported as >100 fold. In the case of `CC1CN(C(=O)C(=O)N[C@H](c2nc(-c3ccc(-c4ccc(-c5c[nH]c([C@@H](NC(=O)C(=O)N6CC(C)OC(C)C6)C(C)(C)C)n5)cc4)cc3)c[nH]2)C(C)(C)C)CC(C)O1` (single isomer, unassigned) [Compound W-40C], the “Fold-Synergistic 1a (Q30E)” value is reported as >100 fold. `CC(C)(C)OC(=O)N1CC(F)(F)CC1(C)C(=O)N[C@H](c1nc(-c2ccc(-c3ccc(-c4c[nH]c([C@@H](NC(=O)C5(C)CC(F)(F)CN5C(=O)OC(C)(C)C)C(C)(C)C)n4)cc3)cc2)c[nH]1)C(C)(C)C` (single isomer, unassigned) [Compound W-76] was tested, and the “Fold-Synergistic 1a (Q30E)” value was >100 fold. For `CC(C)(C)OC(=O)N1CC(F)(F)CC1(C)C(=O)N[C@H](c1nc(-c2ccc(-c3ccc(-c4c[nH]c([C@@H](NC(=O)C5(C)CC(F)(F)CN5C(=O)OC(C)(C)C)C(C)(C)C)n4)cc3)cc2)c[nH]1)C(C)(C)C` (single isomer, unassigned) [Compound W-77], the “Fold-Synergistic 1a (Q30E)” value was >100 fold. `CC(C)(C)OC(=O)N1CC(F)(F)CC1(C)C(=O)N[C@H](c1nc(-c2ccc(-c3ccc(-c4c[nH]c([C@@H](NC(=O)C5(C)CC(F)(F)CN5C(=O)OC(C)(C)C)C(C)(C)C)n4)cc3)cc2)c[nH]1)C(C)(C)C` (single isomer, unassigned) [Compound W-78] was tested, and the “Fold-Synergistic 1a (Q30E)” value was >100 fold. With `CC1(C)CCCC(C)(C(=O)N[C@H](c2nc(-c3ccc(-c4ccc(-c5c[nH]c([C@@H](NC(=O)C6(C)CCCC(C)(C)O6)C(C)(C)C)n5)cc4)cc3)c[nH]2)C(C)(C)C)O1` (single isomer, unassigned) [Compound W-167] the “Fold-Synergistic 1a (Q30E)” value was >100 fold. With `CC1(C)CCCC(C)(C(=O)N[C@H](c2nc(-c3ccc(-c4ccc(-c5c[nH]c([C@@H](NC(=O)C6(C)CCCC(C)(C)O6)C(C)(C)C)n5)cc4)cc3)c[nH]2)C(C)(C)C)O1` (single isomer, unassigned) [Compound W-168] the “Fold-Synergistic 1a (Q30E)” value was >10 fold. `CC1(O)CC(C(=O)N[C@H](c2nc(-c3ccc(-c4ccc(-c5c[nH]c([C@@H](NC(=O)C6CC(C)(O)C6)C(C)(C)C)n5)cc4)cc3)c[nH]2)C(C)(C)C)C1` (single isomer, unassigned) [Compound W-169] was tested, and the “Fold-Synergistic 1a (Q30E)” value was >100 fold. For `CC1(O)CC(C(=O)N[C@H](c2nc(-c3ccc(-c4ccc(-c5c[nH]c([C@@H](NC(=O)C6CC(C)(O)C6)C(C)(C)C)n5)cc4)cc3)c[nH]2)C(C)(C)C)C1` (single isomer, unassigned) [Compound W-170], the “Fold-Synergistic 1a (Q30E)” value was >100 fold. In the case of `COC(C)(COCc1ccccc1)C(=O)N[C@H](c1nc(-c2ccc(-c3ccc(-c4c[nH]c([C@@H](NC(=O)C(C)(COCc5ccccc5)OC)C(C)(C)C)n4)cc3)cc2)c[nH]1)C(C)(C)C.O=C(O)C(F)(F)F.O=C(O)C(F)(F)F` (single isomer, unassigned) [Compound W-230], the “Fold-Synergistic 1a (Q30E)” value is reported as >100 fold. With `COC(C)(COCc1ccccc1)C(=O)N[C@H](c1nc(-c2ccc(-c3ccc(-c4c[nH]c([C@@H](NC(=O)C(C)(COCc5ccccc5)OC)C(C)(C)C)n4)cc3)cc2)c[nH]1)C(C)(C)C.O=C(O)C(F)(F)F.O=C(O)C(F)(F)F` (single isomer, unassigned) [Compound W-231] the “Fold-Synergistic 1a (Q30E)” value was >100 fold.
